Results as given in patent publication US7348315B2, “Methods of treating heart failure with modified ATP, ADP and AMP compounds” (priority 1995, dated 2008).

Experiments:
[1] = system: cardiac ventricular myocytes; test: Contractile amplitude of cultured cardiac ventricular myocytes (optico-video motion detection); assay type: cell-based, chick; conditions: for maximal % increase in contractile amplitude: ventricular myocytes (chick embryo 14 days in ovo / adult rat), mean ± SE; for ability to stimulate an increase in contractile amplitude: FIGS. 1a-1d; for desensitization of the positive inotropic response to ATP, ADPβS and UTP after pre-exposure: pre-exposure 100 μM, 60 minutes (2-methylthio ATP) or three hours (UTP)
Description: […] Sen, L., Liang, B. T., Colucci, W. S., Smith, T. W., Circ. Res. 67:1182-1192 (1990), modified to include the use of a high-speed peristaltic pump (Masterflex from Cole-Palmer/Spectrum), choice of lots of collagenase, hyaluronidase and protease that give the highest proportion of rod-shaped myocytes, inclusion of bovine serum albumin containing various enzymes, and pre-plating with laminin-coated plates or glass coverslips (for contractility measurement) to eliminate damaged, rounded up myocytes. Specifically, hearts from Sprague-Dawley rats were perfused in a retrograde manner for 5 minutes in Krebs-Henseleit (KH) bicarbonate buffer containing 118 mM NaCl, 4.6 mM KCl, 1.2 mM MgSO4, 1.25 mM CaCl2, 1.2 mM KH2PO4, 25 mM NaHCO3, and 11 mM glucose, gassed with 95% O2/5% CO2/at pH 7.4 (37° C., and an osmolality of 287 mosm/liter). The perfusion buffer was changed to nominally Ca^2+-free KH buffer for 5 min to arrest spontaneous beating. The heart was then perfused with the Ca^2+-free KH buffer containing 0.05% collagenase (Worthington) and 0.03% hyaluronidase (Sigma Chem. Co., St. Louis, Mo.) for 20 min. After removing the atria and the great vessels, the ventricular tissue was finely minced in the same collagenase/hyaluronidase buffer described above except that trypsin (0.02 mg/ml, Sigma) and deoxyribonuclease (0.02 mg/ml, Sigma) was also added. The minced tissue was further incubated in this buffer at 37° C. with shaking to facilitate dissociation of individual ventricular myocytes. The dissociated cells containing some damaged cells were filtered and layered twice over a 6% bovine serum albumin gradient. The rod-shaped healthy heart cells sedimented more easily than the round damaged cells. After the second sedimentation through the 6% BSA gradient, the final pellet contains more than 90% rod-shaped heart cells.
Ventricular myocytes were cultured from chick embryos 14 days in ovo according to known procedures. Briefly, isolated ventricular myocytes from chick embryos 14 in ovo were prepared in calcium- and magnesium-free Hanks' balanced salt sodium (HBSS) containing 0.025% trypsin (GIBCO, Grand Island, N.Y.). After neutralization of trypsin medium containing horse serum and HBSS, cells were centrifuged and resuspended in culture medium containing 6% fetal bovine serum, 40% Medium 199 (GIBCO), 0.1% penicillin/streptomycin, and a salt solution. The final concentrations in the culture medium (in mmol/L) were Na 142, K 3.3, Mg 0.7, Ca 1.4, Cl 130, HCO3 16.4, and glucose 5.5. Cells were plated at a density of 400,000 cell per ml and cultivated in a humidified 5% CO2-95% […]
The cell isolation procedure was generally that of Kelly, R. A., Eid, H., Kramer, B. K., O'Neill, M., Liang, B. T., Reers, M., Smith, T. W., J. Clin. Invest. 86:1164-1171 (1990), […] Cells became confluent on day 3 in culture and contractility measurement was carried out on that day.
Measurement of contractile amplitude in cultured ventricular cells was carried out generally according to the methods of Xu, D., Kong, H., Liang, B. T., Circ. Res. 70:56-65 (1992), and Barry, W. H., and Smith, T. W., J. Physiol. (Lond) 325:243-260 (1982). […]

isolated mouse heart = test: Work-performing isolated mouse heart; conditions: 100 nM, vs basal; for increase in +dP/dt (cardiac muscle contractility) / increase in cardiac output (C.O.) / increase in −dP/dt (diastolic relaxation): P less than 0.05, paired t test
Method: perfusion in the isolated heart was carried out using the work-performing model described as follows: For the working heart model, a column of KHS buffer produced a constant hydrostatic pressure of 65 mmHg (for rat) or 55 mmHg (for mice). The opening of the pulmonary vein was connected via a PE-90 (for rat) or PE-50 (for mice) catheter to a reservoir of KHS buffer that maintained a “venous return” flow into the left atrium of about 12 mL/min (rat) or 5 mL/min (mice) under the resting condition. The venous return was maintained by a constant level of hydrostatic pressure (7-8 mm Hg) yielding a steady rate of venous return. The entering KHS buffer was then switched from retrograde to antegrade perfusion and produced a work-performing heart preparation. The perfusate exited the left ventricle through the aorta cannula, which was connected to the aortic column of KHS buffer with a hydrostatic pressure of 55 mmHg (for mice) or 65 mmHg (for rat). Aortic flow was the amount of perfusate exiting the aortic cannula measured in millimeters per minute. Coronary flow, in millimeters per minute, was collected via opening of the pulmonary artery. The sum of aortic flow and coronary flow was the cardiac output. A 23 gauge catheter was inserted into the left ventricle and its distal end is connected to a pressure transducer to record left ventricular pressures and ±dP/dt. The left ventricular developed pressure (LVDP) was the difference between LV systolic and diastolic pressure. A side port of the reservoir allowed direct infusion of beta-adrenergic agonist isoproterenol or P2X receptor agonist 2-[…] into the KHS buffer that entered the left ventricle via the left atrium, which then entered the coronary circulation following ejection of drug-containing perfusate into the aorta. The pressure recordings were channeled from amplifiers which had been precalibrated by a transducer simulator/calibrator (Ken Scientific Corp., Litchfield, Conn.). The signals were then digitized via a PCM-DAS 16S/330 interface board (Computer Boards, Inc. Mansfield, Mass.) which provided a high level of performance with analog input channels and digital channels. Data were analyzed by computer software (WorkBench for Windows+, Kent Scientific Corp.) designed for an IBM-compatible computer (Dell). […] Data acquisition, signal display (LV pressures, ±dP/dt, heart rate), and data analysis programs were run concurrently from the hard drive of the computer. Data points under each basal condition and during infusion of each drug concentration were summarized as means±SE, and the statistical differences were analyzed by one-way ANOVA with post-test comparison and […] and ISO (isoproterenol) were present at 100 nM. Basal represented the baseline values obtained before infusion with the agonists. Date were the means and standard errors of those obtained in 5 rats.

working rat heart = test: Intact working rat heart; conditions: FIG. 11
Method: For the working heart model, a column of KHS buffer produced a constant hydrostatic pressure of 65 mmHg (for rat) or 55 mmHg (for mice). The opening of the pulmonary vein was connected via a PE-90 (for rat) or PE-50 (for mice) catheter to a reservoir of KHS buffer that maintained a “venous return” flow into the left atrium of about 12 mL/min (rat) or 5 mL/min (mice) under the resting condition. The venous return was maintained by a constant level of hydrostatic pressure (7-8 mm Hg) yielding a steady rate of venous return. The entering KHS buffer was then switched from retrograde to antegrade perfusion and produced a work-performing heart preparation. […] Aortic flow was the amount of perfusate exiting the aortic cannula measured in […]. […]
The pressure recordings were channeled from amplifiers which had been precalibrated by a transducer simulator/calibrator (Ken Scientific Corp., Litchfield, Conn.). […] Data were analyzed by computer software (WorkBench for Windows+, Kent Scientific Corp.) designed for an IBM-compatible computer (Dell). […] Data points under each basal condition and during infusion of each drug concentration were summarized as means±SE, and the statistical differences were analyzed by one-way ANOVA with post-test comparison and t test.

Nc1ncnc2c1ncn2[C@@H]1O[C@H](COP(=O)(O)OP(=O)(O)OP(=O)(O)O)[C@@H](O)[C@H]1O [ATP]
maximal % increase in contractile amplitude [1]: 89.7±9%

Nc1ncnc2c1ncn2[C@@H]1O[C@H](COP(=O)(O)OP(O)(O)=S)[C@@H](O)[C@H]1O [ADPβS]
maximal % increase in contractile amplitude [1]: 76±15%

CSc1nc(N)c2ncn([C@@H]3O[C@H](COP(=O)(O)OP(=O)(O)OP(=O)(O)O)[C@@H](O)[C@H]3O)c2n1 [2-methylthio ATP]
ability to stimulate an increase in contractile amplitude [1]: capable of stimulating an increase in contractile amplitude | desensitization of the positive inotropic response to ATP, ADPβS and UTP after pre-exposure [1]: desensitized the positive inotropic response | maximal % increase in contractile amplitude [1]: 54±7% | heart rate (H.R.) (isolated mouse heart): did not change the heart rate | increase in +dP/dt (cardiac muscle contractility) (isolated mouse heart): statistically significant | increase in cardiac output (C.O.) (isolated mouse heart): statistically significant | increase in −dP/dt (diastolic relaxation) (isolated mouse heart): statistically significant | +dP/dt (index of muscle contractility) (working rat heart): increases | −dP/dt (index of diastolic relaxation) (working rat heart): increases

CC(C)NCC(O)c1ccc(O)c(O)c1 (stereo not shown) [isoproterenol]
heart rate (H.R.) (isolated mouse heart): significant stimulation | increase in +dP/dt (cardiac muscle contractility) (isolated mouse heart): statistically significant | increase in cardiac output (C.O.) (isolated mouse heart): statistically significant | increase in −dP/dt (diastolic relaxation) (isolated mouse heart): statistically significant

O=c1ccn([C@@H]2O[C@H](COP(=O)(O)OP(=O)(O)OP(=O)(O)O)[C@@H](O)[C@H]2O)c(=O)[nH]1 [UTP]
ability to stimulate an increase in contractile amplitude [1]: not capable of producing the same effect | desensitization of the positive inotropic response to ATP, ADPβS and UTP after pre-exposure [1]: failed to cause such desensitization | maximal % increase in contractile amplitude [1]: 22±4%

CSc1nc(N)c2ncn([C@@H]3O[C@H](COP(=O)(O)OP(=O)(O)O)[C@@H](O)[C@H]3O)c2n1 [2-methylthio ADP]
effect on basal contractile amplitude (positive inotropic effect) ([1]; myocytes paced at 2 HZ, FIG. 7): pronounced positive inotropic effect

Nc1ncnc2c1ncn2[C@@H]1O[C@H](COP(=O)(O)OP(=O)(O)NP(=O)(O)O)[C@@H](O)[C@H]1O [App(NH)p, adenylyl imidodiphospate]
effect on contractile amplitude in presence of adenosine receptor antagonist 8-SPT ([1]; App(NH)p plus 8-sulfophenyltheophylline, FIG. 8): not mediated via the adenosine receptor | effect on basal contractile amplitude (positive inotropic effect) ([1]; FIG. 8): pronounced positive inotropic effect

Nc1ncnc2c1ncn2[C@@H]1O[C@H](COP(=O)(O)O)[C@@H](O)[C@H]1O [AMP]
maximal % increase in contractile amplitude [1]: 9.6±4%

Nc1ncnc2c1ncn2[C@@H]1O[C@H](COP(=O)(O)CP(=O)(O)OP(=O)(O)O)[C@@H](O)[C@H]1O [α,β-methylene ATP]
ability to stimulate an increase in contractile amplitude [1]: not capable of producing the same effect | maximal % increase in contractile amplitude [1]: −13±5%

Nc1ncnc2c1ncn2[C@@H]1O[C@H](COP(=O)(O)OP(=O)(O)O)[C@@H](O)[C@H]1O [ADP]
maximal % increase in contractile amplitude [1]: 47.7±10%

Nc1ncnc2c1ncn2[C@@H]1O[C@H](COP(N)(=O)O)[C@@H](O)[C@H]1O [adenosine 5′monophosphoramidate]
effect on basal contractile amplitude (positive inotropic effect) ([1]; myocytes paced at 2 HZ, FIG. 7): pronounced positive inotropic effect

adenylyl 5′phosphoramidate
effect on basal contractile amplitude (positive inotropic effect) ([1]; myocytes paced at 2 HZ, FIG. 7): pronounced positive inotropic effect

Nc1ncnc2c1ncn2[C@@H]1O[C@H](CO)[C@@H](O)[C@H]1O [adenosine]
maximal % increase in contractile amplitude [1]: 15±4%
